Values joined by “and” are separate entries in the source; they are usually repeats but may differ in a detail not shown here. Equal values may be shown once.
Experiments:
Type in all cases: biochemical
mAC1 = biological target: T1, mAC1 (Homo sapiens, UniProt Q08828); assay: AC assay, Gsα-stimulated mAC1 in membranes from transfected HEK293 cells
T1 construct: Human mAC genes were from GenScript and fitted with a C-terminal FLAG-tag; FLAG (C); made in house; host or cells: HEK293, permanently transfected; membrane preparation
Experimental: (§1) hAC sequences were from NCBI were: ADCY1: NM_021116.3; ADCY2: NM_020546.2; ADCY3: NM_004036.4; ADCY4: NM_001198568.2; ADCY5: NM_183357.2; ADCY6: NM_015270.4; ADCY7: NM_001114.4; ADCY8: NM_001115.2; ADCY9: NM_001116.3. Human mAC genes were from GenScript and fitted with a C-terminal FLAG-tag. […] The gene was synthesized by GenScript. HEK293 cells were maintained in Dulbeccos Modified Eagle Medium (DMEM) with 10% fetal bovine serum at 37°C and 5% CO2. Transfection with AC plasmids was with PolyJet (SignaGen, Frederick, MD, USA). Permanent cell lines were generated by selection for 7 days with 600 µg/ml G418 and maintained with 300 µg/ml For membrane preparation, cells were tyrpsinized, collected by centrifugation (3000 × g, 5 min) and lysed and homogenized in 20 mM HEPES, pH 7.5, 1 mM Ethylenediaminetetraacetic acid (EDTA), 2 mM MgCl2, 1 mM Dithiothreitol (DTT), one tablet of cOmplete, EDTA-free (per 50 ml) and 250 mM sucrose by 20 strokes in a potter homogenizer on ice. Debris was removed (5 min at 1000 × g, 0°C), membranes were collected at 100,000 × g, 60 min at 0°C, suspended and stored at −80°C in 20 mM MOPS, pH 7.5, 0.5 mM EDTA, 2 mM MgCl2. […] Three cerebral cortices were dissected and homogenized in 4.5 ml cold 48 mM Tris–HCl, pH 7.4, 12 mM MgC1_2, and 0.1 mM Ethylene glycol-bis(β-aminoethyl ether)-N,N,N′,N′-tetraacetic acid (EGTA) with a Polytron hand disperser (Kinematica AG, Switzerland). […] The pellet was washed once with 5 ml 1 mM KHCO3. The final suspension in 2 ml 1 mM KHCO3 was stored in aliquots at −80°C.
(§2) In a volume of 10 μl, AC activities were measured using 1 mM ATP, 2 mM MgCl2, 3 mM creatine phosphate, 60 μg/ml creatine kinase, and 50 mM MOPS pH 7.5. The cAMP assay kit from Cisbio (Codolet, France) was used for detection according to the supplier’s instructions. For each assay, a cAMP standard curve was established. EC50 and IC50 values were calculated by GraphPad Prism version 8.4.3 for Windows, GraphPad Software, San Diego, CA, USA, https://www.graphpad.com .

mAC2 = biological target: T2, mAC2 (Homo sapiens, UniProt Q08462); assay: AC assay, Gsα-stimulated mAC2 in membranes from transfected HEK293 cells; details: Figure 5-figure supplement 1 left, 20 µM
T2 construct: Human mAC genes were from GenScript and fitted with a C-terminal FLAG-tag; FLAG (C); made in house; host or cells: HEK293, permanently transfected; membrane preparation
Experimental: as §1, §2

mAC3 = biological target: T3, mAC3 (Homo sapiens, UniProt O60266); assay: AC assay, Gsα-stimulated mAC3 in membranes from transfected HEK293 cells; details: for Effect of lipid on 300 nM Gsα-stimulated mAC3: 20 µM, in words; for mAC3 activity [%] (100% = 300nM Gsα stimulation): fatty acid 20 µM, individual experiments
T3 construct: Human mAC genes were from GenScript and fitted with a C-terminal FLAG-tag; FLAG (C); made in house; host or cells: HEK293, permanently transfected; membrane preparation
Experimental: as §1, §2

mAC4 = biological target: T4, mAC4 (Homo sapiens, UniProt Q8NFM4); assay: AC assay, Gsα-stimulated mAC4 in membranes from transfected HEK293 cells
T4 construct: Human mAC genes were from GenScript and fitted with a C-terminal FLAG-tag; FLAG (C); made in house; host or cells: HEK293, permanently transfected; membrane preparation
T4 sequence (Q8NFM4 1-1077): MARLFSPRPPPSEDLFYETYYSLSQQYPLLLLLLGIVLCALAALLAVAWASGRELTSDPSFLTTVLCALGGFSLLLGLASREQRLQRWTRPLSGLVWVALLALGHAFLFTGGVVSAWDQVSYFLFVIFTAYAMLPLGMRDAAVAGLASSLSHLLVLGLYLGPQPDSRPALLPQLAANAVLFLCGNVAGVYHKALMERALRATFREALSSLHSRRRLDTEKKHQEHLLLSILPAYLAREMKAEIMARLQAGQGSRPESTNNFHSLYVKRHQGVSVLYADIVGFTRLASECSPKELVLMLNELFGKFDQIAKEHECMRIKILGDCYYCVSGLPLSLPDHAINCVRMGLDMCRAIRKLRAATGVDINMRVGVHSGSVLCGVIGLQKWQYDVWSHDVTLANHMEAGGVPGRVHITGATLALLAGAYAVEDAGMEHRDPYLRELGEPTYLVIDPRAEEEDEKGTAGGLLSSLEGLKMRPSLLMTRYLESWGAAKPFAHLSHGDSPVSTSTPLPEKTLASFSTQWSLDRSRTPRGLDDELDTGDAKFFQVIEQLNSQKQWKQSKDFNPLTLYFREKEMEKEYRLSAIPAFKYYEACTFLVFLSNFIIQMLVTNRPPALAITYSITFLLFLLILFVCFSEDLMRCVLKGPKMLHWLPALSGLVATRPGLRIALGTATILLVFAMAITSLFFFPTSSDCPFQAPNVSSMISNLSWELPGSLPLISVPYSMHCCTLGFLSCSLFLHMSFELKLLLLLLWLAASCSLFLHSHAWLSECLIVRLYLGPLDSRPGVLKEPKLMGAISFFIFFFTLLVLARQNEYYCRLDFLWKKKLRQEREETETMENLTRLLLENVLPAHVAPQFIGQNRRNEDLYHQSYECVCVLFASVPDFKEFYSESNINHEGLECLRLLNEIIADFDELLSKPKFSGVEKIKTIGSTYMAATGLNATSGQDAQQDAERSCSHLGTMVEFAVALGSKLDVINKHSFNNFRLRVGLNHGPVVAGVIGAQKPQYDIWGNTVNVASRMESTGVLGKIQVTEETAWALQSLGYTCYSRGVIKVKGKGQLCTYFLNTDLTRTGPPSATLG
Experimental: as §1, §2

mAC5 = biological target: T5, mAC5 (Homo sapiens, UniProt O95622); assay: AC assay, Gsα-stimulated mAC5 in membranes from transfected HEK293 cells; details: 20µM fatty acid concentration
T5 construct: Human mAC genes were from GenScript and fitted with a C-terminal FLAG-tag; FLAG (C); made in house; host or cells: HEK293, permanently transfected; membrane preparation
Experimental: as §1, §2

mAC6 = biological target: T6, mAC6 (Homo sapiens, UniProt O43306); assay: AC assay, Gsα-stimulated mAC6 in membranes from transfected HEK293 cells; details: 20µM fatty acid concentration
T6 construct: Human mAC genes were from GenScript and fitted with a C-terminal FLAG-tag; FLAG (C); made in house; host or cells: HEK293, permanently transfected; membrane preparation
Experimental: as §1, §2

mAC7 = biological target: T7, mAC7 (Homo sapiens, UniProt P51828); assay: AC assay, Gsα-stimulated mAC7 in membranes from transfected HEK293 cells; details: Figure 5-figure supplement 2 left, 20 µM
T7 construct: Human mAC genes were from GenScript and fitted with a C-terminal FLAG-tag; FLAG (C); made in house; host or cells: HEK293, permanently transfected; membrane preparation
Experimental: as §1, §2

mAC8 = biological target: T8, mAC8 (Homo sapiens, UniProt P40145); assay: AC assay, Gsα-stimulated mAC8 in membranes from transfected HEK293 cells; details: 20µM fatty acid concentration
T8 construct: Human mAC genes were from GenScript and fitted with a C-terminal FLAG-tag; FLAG (C); made in house; host or cells: HEK293, permanently transfected; membrane preparation
Experimental: as §1, §2

mAC9 = biological target: T9, mAC9 (Homo sapiens, UniProt O60503); assay: AC assay, Gsα-stimulated mAC9 in membranes from transfected HEK293 cells; details: 300 nM Gsα, single experiments
T9 construct: Human mAC genes were from GenScript and fitted with a C-terminal FLAG-tag; FLAG (C); made in house; host or cells: HEK293, permanently transfected; membrane preparation
Experimental: as §1, §2

T6 sequence (O43306 whole entry): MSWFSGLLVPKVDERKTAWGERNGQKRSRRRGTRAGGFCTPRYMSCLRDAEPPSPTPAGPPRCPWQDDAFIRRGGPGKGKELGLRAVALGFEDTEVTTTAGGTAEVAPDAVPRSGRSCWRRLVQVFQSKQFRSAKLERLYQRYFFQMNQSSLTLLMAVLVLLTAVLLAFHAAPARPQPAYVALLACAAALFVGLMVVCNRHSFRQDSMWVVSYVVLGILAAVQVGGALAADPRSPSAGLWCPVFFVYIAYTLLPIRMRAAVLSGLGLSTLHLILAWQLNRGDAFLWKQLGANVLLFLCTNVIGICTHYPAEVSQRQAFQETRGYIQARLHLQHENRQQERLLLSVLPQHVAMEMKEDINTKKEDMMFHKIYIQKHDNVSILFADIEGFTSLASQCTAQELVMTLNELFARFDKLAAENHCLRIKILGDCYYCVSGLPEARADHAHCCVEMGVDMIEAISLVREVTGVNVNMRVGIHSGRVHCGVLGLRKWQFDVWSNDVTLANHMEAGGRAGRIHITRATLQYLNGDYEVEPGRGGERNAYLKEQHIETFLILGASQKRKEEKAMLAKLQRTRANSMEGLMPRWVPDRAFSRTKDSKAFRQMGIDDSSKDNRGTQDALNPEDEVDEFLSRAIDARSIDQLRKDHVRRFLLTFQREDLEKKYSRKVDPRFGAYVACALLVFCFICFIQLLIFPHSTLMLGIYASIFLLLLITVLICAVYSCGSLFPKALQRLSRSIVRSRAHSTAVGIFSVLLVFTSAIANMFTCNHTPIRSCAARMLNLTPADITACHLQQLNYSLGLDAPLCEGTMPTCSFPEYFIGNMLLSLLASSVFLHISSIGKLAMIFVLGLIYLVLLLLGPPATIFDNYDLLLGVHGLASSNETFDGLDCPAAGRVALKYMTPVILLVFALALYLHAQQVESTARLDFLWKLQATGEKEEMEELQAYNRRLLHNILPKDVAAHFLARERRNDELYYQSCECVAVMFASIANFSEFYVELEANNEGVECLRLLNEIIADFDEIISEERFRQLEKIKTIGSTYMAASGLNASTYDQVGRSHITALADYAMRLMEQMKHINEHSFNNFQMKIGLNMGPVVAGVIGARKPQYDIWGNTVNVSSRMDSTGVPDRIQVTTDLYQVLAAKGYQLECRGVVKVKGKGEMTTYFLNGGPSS
T2 sequence (Q08462 whole entry): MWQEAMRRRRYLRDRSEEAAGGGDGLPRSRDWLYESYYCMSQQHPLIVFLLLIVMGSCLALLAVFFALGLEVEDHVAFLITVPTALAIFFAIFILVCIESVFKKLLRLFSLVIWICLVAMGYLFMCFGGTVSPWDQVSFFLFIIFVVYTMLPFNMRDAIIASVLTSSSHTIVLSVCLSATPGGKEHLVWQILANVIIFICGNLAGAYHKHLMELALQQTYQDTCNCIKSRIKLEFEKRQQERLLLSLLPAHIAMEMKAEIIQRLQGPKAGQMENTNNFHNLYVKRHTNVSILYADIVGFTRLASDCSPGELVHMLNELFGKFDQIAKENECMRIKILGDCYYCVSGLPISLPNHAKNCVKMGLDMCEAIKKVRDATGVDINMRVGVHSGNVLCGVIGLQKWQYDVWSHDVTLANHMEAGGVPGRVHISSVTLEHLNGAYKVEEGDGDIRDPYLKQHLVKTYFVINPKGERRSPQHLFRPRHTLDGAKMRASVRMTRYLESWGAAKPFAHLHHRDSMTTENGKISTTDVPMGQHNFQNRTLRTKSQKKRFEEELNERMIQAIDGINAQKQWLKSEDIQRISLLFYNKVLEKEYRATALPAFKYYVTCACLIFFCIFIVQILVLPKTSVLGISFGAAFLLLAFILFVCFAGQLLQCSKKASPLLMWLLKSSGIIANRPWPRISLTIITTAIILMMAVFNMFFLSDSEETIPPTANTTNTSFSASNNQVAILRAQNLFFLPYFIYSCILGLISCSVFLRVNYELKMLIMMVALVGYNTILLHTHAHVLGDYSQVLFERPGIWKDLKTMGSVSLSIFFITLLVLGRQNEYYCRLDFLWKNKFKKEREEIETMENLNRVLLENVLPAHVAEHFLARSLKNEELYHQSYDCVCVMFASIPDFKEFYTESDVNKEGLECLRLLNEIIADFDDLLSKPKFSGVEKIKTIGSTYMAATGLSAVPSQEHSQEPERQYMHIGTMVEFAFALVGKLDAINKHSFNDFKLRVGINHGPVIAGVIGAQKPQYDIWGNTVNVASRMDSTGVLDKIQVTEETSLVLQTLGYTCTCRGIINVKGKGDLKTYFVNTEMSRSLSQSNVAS
T2 sequence (P63092 2-394 Q227L partner): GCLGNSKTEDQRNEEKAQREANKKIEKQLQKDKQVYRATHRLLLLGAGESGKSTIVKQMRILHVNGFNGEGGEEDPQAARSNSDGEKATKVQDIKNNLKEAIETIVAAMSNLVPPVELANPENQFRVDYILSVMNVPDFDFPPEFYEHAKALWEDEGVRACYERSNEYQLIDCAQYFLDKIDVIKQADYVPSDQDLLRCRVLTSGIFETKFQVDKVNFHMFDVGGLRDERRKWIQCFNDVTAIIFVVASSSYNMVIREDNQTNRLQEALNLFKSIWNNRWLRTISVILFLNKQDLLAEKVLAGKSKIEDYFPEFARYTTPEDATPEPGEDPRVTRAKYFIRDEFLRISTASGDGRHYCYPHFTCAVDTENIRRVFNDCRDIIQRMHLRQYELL
T5 sequence (O95622 whole entry): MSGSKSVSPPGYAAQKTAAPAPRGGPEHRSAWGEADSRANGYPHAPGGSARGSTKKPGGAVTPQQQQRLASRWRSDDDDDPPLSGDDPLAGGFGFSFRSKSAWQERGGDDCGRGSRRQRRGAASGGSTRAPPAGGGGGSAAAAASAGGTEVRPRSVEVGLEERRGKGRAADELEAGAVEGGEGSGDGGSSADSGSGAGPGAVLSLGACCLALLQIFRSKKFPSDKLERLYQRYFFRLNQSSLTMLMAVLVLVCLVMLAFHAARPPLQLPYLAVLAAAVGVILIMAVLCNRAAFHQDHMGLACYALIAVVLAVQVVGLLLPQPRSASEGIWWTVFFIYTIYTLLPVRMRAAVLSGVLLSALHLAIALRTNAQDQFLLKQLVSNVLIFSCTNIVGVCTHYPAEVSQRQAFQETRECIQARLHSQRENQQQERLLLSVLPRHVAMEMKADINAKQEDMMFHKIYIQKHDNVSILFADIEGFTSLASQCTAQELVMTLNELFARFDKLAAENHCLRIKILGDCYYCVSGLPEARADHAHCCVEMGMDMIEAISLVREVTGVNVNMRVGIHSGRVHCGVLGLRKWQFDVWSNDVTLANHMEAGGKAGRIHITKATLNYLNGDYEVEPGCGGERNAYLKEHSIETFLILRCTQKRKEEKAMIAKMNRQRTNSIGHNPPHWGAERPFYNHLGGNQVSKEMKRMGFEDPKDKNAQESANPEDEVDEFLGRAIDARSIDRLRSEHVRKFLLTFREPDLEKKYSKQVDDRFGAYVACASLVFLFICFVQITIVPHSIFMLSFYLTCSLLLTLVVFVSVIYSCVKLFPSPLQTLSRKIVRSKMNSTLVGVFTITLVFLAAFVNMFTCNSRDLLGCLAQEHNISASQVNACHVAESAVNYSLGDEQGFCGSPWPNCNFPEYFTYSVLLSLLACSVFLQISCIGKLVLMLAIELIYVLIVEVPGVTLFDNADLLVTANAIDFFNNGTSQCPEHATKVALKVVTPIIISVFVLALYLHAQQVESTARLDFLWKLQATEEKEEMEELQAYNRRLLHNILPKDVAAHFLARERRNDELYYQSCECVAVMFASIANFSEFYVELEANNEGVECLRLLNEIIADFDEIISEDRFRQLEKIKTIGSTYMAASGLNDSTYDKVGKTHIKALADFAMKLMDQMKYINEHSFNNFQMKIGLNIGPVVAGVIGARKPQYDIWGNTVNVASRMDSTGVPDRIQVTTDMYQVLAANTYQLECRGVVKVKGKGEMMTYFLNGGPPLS
T1 sequence (Q08828 whole entry): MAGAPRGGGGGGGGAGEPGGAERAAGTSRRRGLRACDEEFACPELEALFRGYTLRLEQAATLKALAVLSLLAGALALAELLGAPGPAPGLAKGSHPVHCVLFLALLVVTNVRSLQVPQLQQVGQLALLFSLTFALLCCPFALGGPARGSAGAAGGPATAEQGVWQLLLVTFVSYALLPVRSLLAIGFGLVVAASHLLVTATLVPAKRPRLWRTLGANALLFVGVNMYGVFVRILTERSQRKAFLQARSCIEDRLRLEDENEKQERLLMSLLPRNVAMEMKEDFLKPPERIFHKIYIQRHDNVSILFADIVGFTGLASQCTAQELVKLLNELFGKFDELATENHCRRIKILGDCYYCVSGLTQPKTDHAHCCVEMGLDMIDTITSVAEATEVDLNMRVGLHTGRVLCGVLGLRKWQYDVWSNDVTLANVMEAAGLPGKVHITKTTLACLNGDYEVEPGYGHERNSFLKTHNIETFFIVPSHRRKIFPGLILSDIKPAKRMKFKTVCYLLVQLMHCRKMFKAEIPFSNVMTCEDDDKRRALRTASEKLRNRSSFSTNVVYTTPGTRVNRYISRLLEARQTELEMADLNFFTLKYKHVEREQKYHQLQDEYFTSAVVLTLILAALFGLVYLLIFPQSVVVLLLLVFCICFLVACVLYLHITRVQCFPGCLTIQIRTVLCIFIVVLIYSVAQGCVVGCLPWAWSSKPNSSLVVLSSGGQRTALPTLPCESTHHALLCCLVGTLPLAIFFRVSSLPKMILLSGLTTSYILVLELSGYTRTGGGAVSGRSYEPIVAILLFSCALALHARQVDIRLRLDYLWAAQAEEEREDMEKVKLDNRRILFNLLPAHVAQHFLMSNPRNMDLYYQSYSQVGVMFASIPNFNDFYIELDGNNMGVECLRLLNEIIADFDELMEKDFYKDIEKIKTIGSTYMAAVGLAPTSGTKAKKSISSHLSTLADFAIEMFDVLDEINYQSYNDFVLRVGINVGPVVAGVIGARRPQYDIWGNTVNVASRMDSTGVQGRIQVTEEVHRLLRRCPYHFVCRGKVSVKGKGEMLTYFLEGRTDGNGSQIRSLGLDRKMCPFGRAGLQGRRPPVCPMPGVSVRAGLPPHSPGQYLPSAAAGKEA

SMILES | mAC1 activity [%] (100% = 300nM Gsα stimulation); 20µM fatty acid concentration (mAC1; 300 nM Gsα, single experiments) | mAC2 activity [%] (100% = 300nM Gsα stimulation); 20µM fatty acid concentration (mAC2) | Effect of lipid on 300 nM Gsα-stimulated mAC3 (mAC3) | mAC3 activity [%] (100% = 300nM Gsα stimulation) (mAC3) | mAC4 activity [%] (100% = 300nM Gsα stimulation); 20µM fatty acid concentration (mAC4; 300 nM Gsα, single experiments) | mAC5 activity [%] (100% = 300nM Gsα stimulation) (mAC5) | mAC6 activity [%] (100% = 300nM Gsα stimulation) (mAC6) | mAC7 activity [%] (100% = 300nM Gsα stimulation); 20µM fatty acid concentration (mAC7) | mAC8 activity [%] (100% = 300nM Gsα stimulation) (mAC8) | mAC9 activity (%);(100% = Gsα stimulation) stimulated by 300nM Gsα (mAC9; 1 µM fatty acid) | mAC9 activity [%] (100% = 300nM Gsα stimulation); 20µM fatty acid concentration (mAC9; 20 µM fatty acid) | further results
CCCCCCCCCCCCCC(=O)O [Myristic acid, Myristic (tetradecanoic) acid] | 91% and 96% and 101% | 102% and 121% and 90% and 101% | no significant effect | 90% and 108% and 224% and 226% | 71% and 59% and 97% | 105% and 80% and 76% | 98% and 72% and 83% | 94% and 152% and 85% and 110% | 119% and 130% and 99% | 82% and 122% and 127% and 109% and 126% and 137% | 185% and 310% and 168% and 189% and 240% | mAC9 activity (%);(100% = Gsα stimulation) stimulated by 300nM Gsα (mAC9; 3 µM fatty acid): 129% and 111% and 136% and 125%; mAC9 activity (%);(100% = Gsα stimulation) stimulated by 300nM Gsα (mAC9; 6 µM fatty acid): 104% and 129% and 178% and 179% and 144% and 168%; mAC9 activity (%);(100% = Gsα stimulation) stimulated by 300nM Gsα (mAC9; 10 µM fatty acid): 130% and 135% and 224% and 171% and 187% and 200% and 115%; mAC9 activity (%);(100% = Gsα stimulation) stimulated by 300nM Gsα (mAC9; 20 µM fatty acid): 168% and 189% and 240% and 185% and 310%
CCCC/C=C\CCCCCCCC(=O)O [Myristoleic acid, Myristoleic ((9Z)-tetradecenoic) acid] | 90% and 103% and 77% | 106% and 81% and 89% |  | 82% and 156% and 95% | 79% and 94% and 104% | 79% and 90% and 96% | 92% and 96% | 92% and 95% and 67% | 62% and 117% and 101% |  | 88% and 116% and 130% | 
CCCCCCCCCCCCCCCCCC [Octadecane] | 96% and 100% | 74% and 87% |  | 67% and 79% | 71% and 92% | 82% and 128% | 80% and 141% | 87% and 68% | 129% and 109% |  | 70% and 95% | 
CCCCCC/C=C\CCCCCCCC(=O)O [Palmitoleic acid, Palmitoleic ((9Z)-hexadecenoic) acid] | 56% and 77% and 83% and 82% and 92% | 82% and 120% and 125% | less efficacious | 151% and 133% and 248% and 259% and 116% and 136% and 292% | 58% and 74% and 53% and 64% and 83% | 99% and 92% and 101% | 71% and 89% and 68% | 91% and 107% and 128% | 116% and 103% and 76% | 136% and 130% and 125% |  | IC50 (mAC1): 49 µM; activity at 1 µM (mAC1; 1 µM, 300 nM Gsα, single experiments, read-out: mAC1 activity (%);(100% = Gsα stimulation) stimulated by 300nM Gsα): 84%; activity at 6 µM (mAC1; 6 µM, 300 nM Gsα, single experiments, read-out: mAC1 activity (%);(100% = Gsα stimulation) stimulated by 300nM Gsα): 97%; Effect of lipid on 300 nM Gsα-stimulated mAC1 (mAC1; 20 µM, in words): somewhat less; activity at 25 µM (mAC1; 25 µM, 300 nM Gsα, single experiments, read-out: mAC1 activity (%);(100% = Gsα stimulation) stimulated by 300nM Gsα): 50%; activity at 50 µM (mAC1; 50 µM, 300 nM Gsα, single experiments, read-out: mAC1 activity (%);(100% = Gsα stimulation) stimulated by 300nM Gsα): 31%; activity at 0.1 µM (mAC1; read-out: mAC1 activity (%);(100% = Gsα stimulation) stimulated by 300nM Gsα, 0.1 µM, 300 nM Gsα, single experiments (reference point, all 100)): 100%; Effect of lipid on 300 nM Gsα-stimulated mAC4 (mAC4; 20 µM, in words): somewhat less; IC50 (mAC4; attenuation of 300 nM Gsα-stimulated activity, read-out: IC50 for mAC4): 20 µM; activity at 0.1 µM (mAC4; read-out: mAC4 activity (%);(100% = Gsα stimulation) stimulated by 300nM Gsα, 0.1 µM, 300 nM Gsα, single experiments (reference point, all 100)): 100%; activity at 25 µM (mAC4; read-out: mAC4 activity (%);(100% = Gsα stimulation) stimulated by 300nM Gsα, 25 µM, 300 nM Gsα, single experiments): 49%; activity at 50 µM (mAC4; read-out: mAC4 activity (%);(100% = Gsα stimulation) stimulated by 300nM Gsα, 50 µM, 300 nM Gsα, single experiments): 19%; activity at 60 µM (mAC4; read-out: mAC4 activity (%);(100% = Gsα stimulation) stimulated by 300nM Gsα, 60 µM, 300 nM Gsα, single experiments): 75%; activity at 100 µM (mAC4; read-out: mAC4 activity (%);(100% = Gsα stimulation) stimulated by 300nM Gsα, 100 µM, 300 nM Gsα, single experiments): 44%

Source: publication PMC11606603, “The membrane domains of mammalian adenylyl cyclases are lipid receptors” (eLife, 2024)
